Measurements from US20250120969A1, “METHODS AND COMPOSITIONS FOR TREATING INFLAMMATION INJURY IN THE LUNGS” (CalciMedica, Inc., priority 2022, published 2025).

What was measured:
[1] = test system: lung tissue cytokines and neutrophil infiltration; experiment: Animal models of acute pancreatitis (AP) and lung injury; assay type: in vivo
Source text: (§1) Preclinical data supports the use of CRAC inhibitors (e.g. N-(5-(6-Chloro-2,2-difluorobenzo[d][1,3]dioxol-5-yl)pyrazin-2-yl)-2-fluoro-6-methylbenzamide, Compound 1) in severe COVID-19 pneumonia.

[2] = test system: patients with AP and accompanying SIRS plus hypoxemia; experiment: Clinical and pharmacodynamic study in patients with acute pancreatitis, SIRS and hypoxemia; conditions: human, in vivo
human lymphocytes = experiment: In vitro cytokine release in human lymphocytes; assay type: cell-based
Source text: as §1

CRAC channels = CRAC channels (Homo sapiens, UniProt Q96D31); experiment: CRAC channel inhibition
Sequence of CRAC channels (Q96D31 whole entry): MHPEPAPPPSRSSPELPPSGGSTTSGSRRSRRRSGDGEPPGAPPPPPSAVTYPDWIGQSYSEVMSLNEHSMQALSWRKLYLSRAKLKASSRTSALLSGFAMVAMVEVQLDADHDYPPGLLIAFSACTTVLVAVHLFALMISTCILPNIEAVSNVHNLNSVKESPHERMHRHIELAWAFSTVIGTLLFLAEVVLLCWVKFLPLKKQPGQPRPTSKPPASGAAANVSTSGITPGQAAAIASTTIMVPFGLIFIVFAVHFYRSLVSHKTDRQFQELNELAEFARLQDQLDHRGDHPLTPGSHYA

Structure (SMILES): Cc1cccc(F)c1C(=O)Nc1cnc(-c2cc3c(cc2Cl)OC(F)(F)O3)cn1 [Compound 1, N-(5-(6-Chloro-2,2-difluorobenzo[d][1,3]dioxol-5-yl)pyrazin-2-yl)-2-fluoro-6-methylbenzamide]
- Cytokines and neutrophil infiltration in lung tissue [1]: inhibit cytokines and neutrophil infiltration in lung tissue
- IL-6 levels in patients [2]: marked reduction in IL-6 levels
- Respiratory dysfunction in patients [2]: beneficial effects on respiratory dysfunction
- Release of multiple cytokines (human lymphocytes): inhibits release of multiple cytokines
- Inhibition of CRAC channels (CRAC channels): potent and selective
